Test results: patent US7678774B2 (priority 2003, dated 2010)

How the values were obtained:
[1] = tested on: human coronavirus strain OC-43; format: cell-based
[2] = tested on: Mouse Hepatitis Virus Type-3 (MHV-3); settings: in vivo; cited from earlier work
[3] = tested on: Four human tumor cell lines; settings: cited from earlier work
[4] = tested on: human coronavirus strain OC-43; format: cell-based; remark: listed apart in the source
[5] = tested on: Mouse Hepatitis Virus Type-3 (MHV-3); settings: in vivo; cited from earlier work; remark: listed apart in the source
[6] = tested on: coronavirus (SARS); settings: cited from earlier work

Row | Compound | Inhibition of virus in neutral red assay [1] | Virus clearance and development of chronic hepatitis [2] | Antiproliferative interaction with interferons [3] | Inhibition of virus in viral cytopathic inhibition assay [4] | Survival relative to untreated mice [5] | Effect on the SARS coronavirus [6]
1 | rIn.r(C12U)n | inhibit | cleared the virus quickly and did not develop chronic hepatitis | worked synergistically with all interferons in all cell lines studied | inhibit | survived up to four times longer | 
2 | NC(=O)c1ncn([C@@H]2O[C@H](CO)[C@@H](O)[C@H]2O)n1 [ribavirin] |  |  |  |  |  | no effect
